Test results reported in ChEMBL document CHEMBL3390836, “Mannich- and LedererManasse-based analogues of the natural product S-(+)-curcuphenol as cancer proliferation and migration inhibitors” (Medchemcomm, 2012).

Tests used:
Format in all cases: functional
[1] = test system: SNB-19; experiment: Cytotoxicity against human SNB19 cells after 48 hrs by SRB assay; conditions: SNB-19, 48 h; for CC50: read-out: LC50 (the source's name)
[2] = test system: DU-145; experiment: Cytotoxicity against human DU145 cells assessed as cell growth at 10^-7 M after 48 hrs by SRB assay relative to control; conditions: DU-145, 48 h, read-out: Activity
[3] = Cytotoxicity against human Hs 578T cells assessed as cell growth at 10^-6 M after 48 hrs by SRB assay relative to control; conditions: read-out: Activity
[4] = test system: HT-29; experiment: Cytotoxicity against human HT-29 cells assessed as cell growth at 10^-4 M after 48 hrs by SRB assay relative to control; conditions: HT-29, 48 h, read-out: Activity
[5] = test system: KM12; experiment: Cytotoxicity against human KM12 cells assessed as cell growth at 10^-7 M after 48 hrs by SRB assay relative to control; conditions: KM12, 48 h, read-out: Activity
[6] = test system: T47D; experiment: Cytotoxicity against human T47D cells assessed as cell growth at 10^-4 M after 48 hrs by SRB assay relative to control; conditions: read-out: Activity
[7] = test system: IGROV-1; experiment: Cytotoxicity against human IGROV1 cells assessed as cell growth at 10^-6 M after 48 hrs by SRB assay relative to control; conditions: IGROV-1, 48 h, read-out: Activity
[8] = Cytotoxicity against human OVCAR4 cells after 48 hrs by SRB assay; conditions: OVCAR-4, 48 h
[9] = test system: SW-620; experiment: Cytotoxicity against human SW620 cells assessed as cell growth at 10^-6 M after 48 hrs by SRB assay relative to control; conditions: SW-620, 48 h, read-out: Activity
[10] = test system: MDA-MB-231; experiment: Cytotoxicity against human MDA-MB-231 cells assessed as cell growth at 10^-6 M after 48 hrs by SRB assay relative to control; conditions: MDA-MB-231, 48 h, read-out: Activity
[11] = test system: NCI-H322M; experiment: Cytotoxicity against human NCI-H322M cells assessed as cell growth at 10^-6 M after 48 hrs by SRB assay relative to control; conditions: read-out: Activity
[12] = Cytotoxicity against human UO31 cells after 48 hrs by SRB assay; conditions: UO-31, 48 h
[13] = test system: MOLT-4; experiment: Cytotoxicity against human MOLT4 cells after 48 hrs by SRB assay; conditions: MOLT-4, 48 h
[14] = Cytotoxicity against human OVCAR5 cells after 48 hrs by SRB assay; conditions: OVCAR-5, 48 h; for CC50: read-out: LC50 (the source's name)
[15] = test system: COLO 205; experiment: Cytotoxicity against human COLO205 cells assessed as cell growth at 10^-8 M after 48 hrs by SRB assay relative to control; conditions: COLO 205, 48 h, read-out: Activity
[16] = test system: K562; experiment: Cytotoxicity against human K562 cells assessed as cell growth at 10^-7 M after 48 hrs by SRB assay relative to control; conditions: K562, 48 h, read-out: Activity
[17] = test system: T47D; experiment: Cytotoxicity against human T47D cells assessed as cell growth at 10^-6 M after 48 hrs by SRB assay relative to control; conditions: read-out: Activity
[18] = test system: NCI-H460; experiment: Cytotoxicity against human NCI-H460 cells assessed as cell growth at 10^-4 M after 48 hrs by SRB assay relative to control; conditions: NCI-H460, 48 h, read-out: Activity
[19] = test system: SN12C; experiment: Cytotoxicity against human SN12C cells after 48 hrs by SRB assay
[20] = test system: NCI-H23; experiment: Cytotoxicity against human NCI-H23 cells assessed as cell growth at 10^-6 M after 48 hrs by SRB assay relative to control; conditions: NCI-H23, 48 h, read-out: Activity
[21] = Cytotoxicity against human OVCAR3 cells assessed as cell growth at 10^-7 M after 48 hrs by SRB assay relative to control; conditions: OVCAR-3, 48 h, read-out: Activity
[22] = test system: SF-268; experiment: Cytotoxicity against human SF268 cells after 48 hrs by SRB assay; conditions: SF-268, 48 h; for CC50: read-out: LC50 (the source's name)
[23] = test system: SNB-19; experiment: Cytotoxicity against human SNB19 cells assessed as cell growth at 10^-7 M after 48 hrs by SRB assay relative to control; conditions: SNB-19, 48 h, read-out: Activity
[24] = test system: SN12C; experiment: Cytotoxicity against human SN12C cells assessed as cell growth at 10^-7 M after 48 hrs by SRB assay relative to control; conditions: read-out: Activity
[25] = test system: A498; experiment: Cytotoxicity against human A498 cells assessed as cell growth at 10^-8 M after 48 hrs by SRB assay relative to control; conditions: A498, 48 h, read-out: Activity
[26] = test system: TK-10; experiment: Cytotoxicity against human TK10 cells assessed as cell growth at 10^-4 M after 48 hrs by SRB assay relative to control; conditions: TK-10, 48 h, read-out: Activity
[27] = Cytotoxicity against human EKVX cells after 48 hrs by SRB assay
[28] = Cytotoxicity against human PC3 cells assessed as cell growth at 10^-6 M after 48 hrs by SRB assay relative to control; conditions: PC-3, 48 h, read-out: Activity
[29] = Cytotoxicity against human Hs 578T cells assessed as cell growth at 10^-4 M after 48 hrs by SRB assay relative to control; conditions: read-out: Activity
[30] = test system: IGROV-1; experiment: Cytotoxicity against human IGROV1 cells assessed as cell growth at 10^-4 M after 48 hrs by SRB assay relative to control; conditions: IGROV-1, 48 h, read-out: Activity
[31] = test system: HOP-62; experiment: Cytotoxicity against human HOP62 cells assessed as cell growth at 10^-7 M after 48 hrs by SRB assay relative to control; conditions: HOP-62, 48 h, read-out: Activity
[32] = test system: Malme-3M; experiment: Cytotoxicity against human MALME-3M cells assessed as cell growth at 10^-7 M after 48 hrs by SRB assay relative to control; conditions: read-out: Activity
[33] = test system: HCC 2998; experiment: Cytotoxicity against human HCC2998 cells assessed as cell growth at 10^-4 M after 48 hrs by SRB assay relative to control; conditions: HCC 2998, 48 h, read-out: Activity
[34] = test system: NCI-H226; experiment: Cytotoxicity against human NCI-H226 cells assessed as cell growth at 10^-7 M after 48 hrs by SRB assay relative to control; conditions: NCI-H226, 48 h, read-out: Activity
[35] = test system: T47D; experiment: Cytotoxicity against human T47D cells assessed as cell growth at 10^-8 M after 48 hrs by SRB assay relative to control; conditions: read-out: Activity
[36] = Cytotoxicity against human UACC62 cells assessed as cell growth at 10^-8 M after 48 hrs by SRB assay relative to control; conditions: UACC-62, 48 h, read-out: Activity
[37] = test system: NCI-H322M; experiment: Cytotoxicity against human NCI-H322M cells assessed as cell growth at 10^-8 M after 48 hrs by SRB assay relative to control; conditions: read-out: Activity

COc1ccc(CCN2COc3c([C@@H](C)CCC=C(C)C)ccc(C)c3C2)cc1OC
GI50 [1]: 12.1 µM | TGI [1]: 42.8 µM | CC50 [1]: > 100 µM | growth at 0.1 µM [2]: 94% | growth at 1 µM [3]: 93% | growth at 100 µM [4]: -89% | growth at 0.1 µM [5]: 96% | growth at 100 µM [6]: -91% | growth at 1 µM [7]: 53% | GI50 [8]: 2.89 µM | LC50 [8]: > 100 µM | TGI [8]: 16 µM | growth at 1 µM [9]: 93% | growth at 1 µM [10]: 91% | growth at 1 µM [11]: 92% | GI50 [12]: 2.45 µM | LC50 [12]: 36.4 µM | TGI [12]: 12.3 µM | GI50 [13]: 3.69 µM | LC50 [13]: > 100 µM | TGI [13]: > 100 µM | GI50 [14]: 8.53 µM | TGI [14]: 20.8 µM | CC50 [14]: 45.6 µM | growth at 0.01 µM [15]: 105% | growth at 0.1 µM [16]: 95% | growth at 1 µM [17]: 88% | growth at 100 µM [18]: -92% | GI50 [19]: 3.27 µM | LC50 [19]: 36.8 µM | TGI [19]: 13.5 µM | growth at 1 µM [20]: 104% | growth at 0.1 µM [21]: 91% | GI50 [22]: 1.45 µM | TGI [22]: 4.34 µM | CC50 [22]: 17.3 µM | growth at 0.1 µM [23]: 96% | growth at 0.1 µM [24]: 89% | growth at 0.01 µM [25]: 67% | growth at 100 µM [26]: -88% | GI50 [27]: 5.14 µM | LC50 [27]: > 100 µM | TGI [27]: 25.4 µM | growth at 1 µM [28]: 81% | growth at 100 µM [29]: -66% | growth at 100 µM [30]: -99% | growth at 0.1 µM [31]: 96% | growth at 0.1 µM [32]: 86% | growth at 100 µM [33]: -100% | growth at 0.1 µM [34]: 88% | growth at 0.01 µM [35]: 88% | growth at 0.01 µM [36]: 95% | growth at 0.01 µM [37]: 87%

CC(C)=CCC[C@H](C)c1ccc(C)c2c1OCN(CC1CCNCC1)C2
GI50 [1]: 14 µM | TGI [1]: 29.4 µM | CC50 [1]: 61.8 µM | growth at 0.1 µM [2]: 94% | growth at 1 µM [3]: 104% | growth at 100 µM [4]: -66% | growth at 0.1 µM [5]: 99% | growth at 100 µM [6]: -70% | growth at 1 µM [7]: 106% | GI50 [8]: 16 µM | LC50 [8]: 58.9 µM | TGI [8]: 30.7 µM | growth at 1 µM [9]: 103% | growth at 1 µM [10]: 99% | growth at 1 µM [11]: 108% | GI50 [12]: 12.8 µM | LC50 [12]: 58.2 µM | TGI [12]: 27.3 µM | GI50 [13]: 14.6 µM | LC50 [13]: > 100 µM | TGI [13]: 43.3 µM | GI50 [14]: 14.3 µM | TGI [14]: 28.8 µM | CC50 [14]: 57.7 µM | growth at 0.01 µM [15]: 109% | growth at 0.1 µM [16]: 99% | growth at 1 µM [17]: 91% | growth at 100 µM [18]: -94% | GI50 [19]: 14.2 µM | LC50 [19]: 58.7 µM | TGI [19]: 28.9 µM | growth at 1 µM [20]: 105% | growth at 0.1 µM [21]: 105% | GI50 [22]: 16.6 µM | TGI [22]: 33.3 µM | CC50 [22]: 66.7 µM | growth at 0.1 µM [23]: 95% | growth at 0.1 µM [24]: 102% | growth at 0.01 µM [25]: 78% | growth at 100 µM [26]: -87% | GI50 [27]: 20.7 µM | LC50 [27]: > 100 µM | TGI [27]: 66.9 µM | growth at 1 µM [28]: 103% | growth at 100 µM [29]: -75% | growth at 100 µM [30]: -86% | growth at 0.1 µM [31]: 94% | growth at 0.1 µM [32]: 94% | growth at 100 µM [33]: -94% | growth at 0.1 µM [34]: 98% | growth at 0.01 µM [35]: 95% | growth at 0.01 µM [36]: 95% | growth at 0.01 µM [37]: 98%

CC(C)=CCC[C@H](C)c1ccc(C)c(CNCC2CCNCC2)c1O
GI50 [1]: 3.99 µM | TGI [1]: > 25 µM | CC50 [1]: > 25 µM | growth at 0.1 µM [2]: 96% | growth at 1 µM [3]: 97% | growth at 100 µM [4]: -66% | growth at 0.1 µM [5]: 97% | growth at 100 µM [6]: -73% | growth at 1 µM [7]: 98% | GI50 [8]: 18.2 µM | LC50 [8]: > 25 µM | TGI [8]: > 25 µM | growth at 1 µM [9]: 99% | growth at 1 µM [10]: 104% | growth at 1 µM [11]: 99% | GI50 [12]: 3.58 µM | LC50 [12]: > 25 µM | TGI [12]: 12.3 µM | LC50 [13]: > 25 µM | GI50 [14]: 9.56 µM | TGI [14]: > 25 µM | CC50 [14]: > 25 µM | growth at 0.01 µM [15]: 106% | growth at 0.1 µM [16]: 99% | growth at 1 µM [17]: 84% | growth at 100 µM [18]: -68% | GI50 [19]: 12.9 µM | LC50 [19]: > 25 µM | TGI [19]: > 25 µM | growth at 1 µM [20]: 94% | growth at 0.1 µM [21]: 104% | GI50 [22]: 7.12 µM | TGI [22]: > 25 µM | CC50 [22]: > 25 µM | growth at 0.1 µM [23]: 91% | growth at 0.1 µM [24]: 91% | growth at 0.01 µM [25]: 80% | growth at 100 µM [26]: -15% | GI50 [27]: 8.56 µM | LC50 [27]: > 25 µM | TGI [27]: > 25 µM | growth at 1 µM [28]: 101% | growth at 100 µM [29]: 23% | growth at 100 µM [30]: 24% | growth at 0.1 µM [31]: 95% | growth at 0.1 µM [32]: 89% | growth at 100 µM [33]: -94% | growth at 0.1 µM [34]: 79% | growth at 0.01 µM [35]: 101% | growth at 0.01 µM [36]: 97% | growth at 0.01 µM [37]: 99%
